Data taken from PMC6687188, “Novel lactate dehydrogenase inhibitors with in vivo efficacy against Cryptosporidium parvum” (PLoS Pathogens, 2019).

target: recombinant CpLDH protein (Cryptosporidium parvum, UniProt Q9GT92, F198L/K295E/R251K)

First: O=C1C(Br)=C(Br)C(=O)c2ccccc21 [NSC618332]
Second: CC(C)=CCC1=C(O)c2ccccc2C(=O)C1=O [NSC11905]
The “MEAN CpLDH INHIBITION (%)” value of the first is higher: -7.70% for the first, -39.26% for the second.

Compared with NC(=S)NN=Cc1ncccc1O [NSC95678], N#CC(=S)Nc1ccc(F)cc1 [NSC369317] is higher in “MEAN CpLDH INHIBITION (%)” value: -37.43% for the first, -8.49% for the second.

Going from CC(=O)c1ccc(Oc2ccc(/C(C)=N\N=C(N)N)cc2)cc1.O=[N+]([O-])O [NSC97911] to CC(=O)Oc1ccc(C(c2ccc(OC(C)=O)cc2)c2ccccn2)cc1 [NSC614826], the “MEAN CpLDH INHIBITION (%)” value rises from -11.97% to -3.85%.

Compared with N#CC1CC(c2ccccc2)Nc2cc(Cl)ccc2N1 (centres unmarked) [NSC155595], N#C/C(=C\c1ccc2ccccc2c1)C(=O)c1ccccc1 [NSC643186] is lower in “MEAN CpLDH INHIBITION (%)” value: -11.00% for the first, -12.83% for the second.

Compared with C=C(CN(C)C)C(=O)c1ccccc1Cl.Cl [NSC382007], CN(C)CCOc1ccc(I)cc1Cc1ccccc1.Cl [NSC11930] is higher in “MEAN CpLDH INHIBITION (%)” value: -43.42% for the first, -34.92% for the second.

Going from O=C([O][Hg][CH2]C1COC([CH2][Hg][O]C(=O)c2ccccc2)CO1)c1ccccc1 (centres unmarked) [NSC30916] to COc1cc(O)c(Cc2ccccc2O)c(O)c1C(=O)CCc1ccccc1 [NSC241906], the “MEAN CpLDH INHIBITION (%)” value rises from -5.35% to -0.38%.

First: CCN(CC)CCCNc1ncc(C)c2[nH]c3ccncc3c12.O=C(O)/C=C\C(=O)O [NSC625331]
Second: CCN(CC)CCNC(=O)c1nn(-c2ccc(Cl)cc2)c2c1CCc1cc(OC)ccc1-2 [NSC288010]
The “MEAN CpLDH INHIBITION (%)” value of the first is higher: -26.39% for the first, -45.22% for the second.

Compared with CC(C)OP(=O)(OC(C)C)C(N(C)C)P(=O)(OC(C)C)OC(C)C.[Cl][Sn]([Cl])([Cl])[c]1ccccc1 [NSC645567], CN(C)CC1CCC/C(=C\c2ccc(OC(=O)/C=C/c3ccccc3)cc2)C1=O.Cl (centres unmarked) [NSC697443] is lower in “MEAN CpLDH INHIBITION (%)” value: -28.84% for the first, -57.12% for the second.

Going from COC(C(=O)C(O)C(C)O)C1Cc2cc3cc(OC4CC(OC5CC(O)C(O)C(C)O5)C(O)C(C)O4)c(C)c(O)c3c(O)c2C(=O)C1OC1CC(OC2CC(OC3CC(O)C(OC)C(C)O3)C(O)C(C)O2)C(O)C(C)O1 (centres unmarked) [NSC269146] to C[C@@H]1O[C@@H](O[C@@H]2C=C3CC[C@@H]4[C@H](CC[C@]5(C)[C@@H](c6ccc(=O)oc6)CC[C@]45O)[C@@]3(C)CC2)[C@H](O)[C@H](O)[C@H]1O[C@@H]1O[C@H](CO)[C@@H](O)[C@H](O)[C@H]1O [NSC7525], the “MEAN CpLDH INHIBITION (%)” value rises from -38.98% to -34.67%.

Going from COc1cccc(/C=N\NC(=O)C(C)SC(C)C(=O)N/N=C/c2cccc(OC)c2)c1 (centres unmarked) [NSC56737] to CN(C)c1ccc(/C=C/C(=O)[O-])cc1.CN(C)c1ccc(/C=C/C(=O)[O-])cc1.[Cu+2] [NSC643351], the “MEAN CpLDH INHIBITION (%)” value rises from -38.88% to -4.10%.

Going from Cc1ccc(NC(=S)C#N)c(C)c1 [NSC369318] to CCOC(=O)Nc1nc2ccc(Cn3cccc3)cc2[nH]1 [NSC639754], the “MEAN CpLDH INHIBITION (%)” value rises from -37.61% to -8.79%.

Going from CCOc1cccc(/C=N/N=C2\C(=O)Nc3c(Cl)cc(Cl)cc32)c1O [NSC329277] to CCOc1ccccc1NC(=O)CC1Sc2ccccc2NC1=O (centres unmarked) [NSC637680], the “MEAN CpLDH INHIBITION (%)” value falls from -1.09% to -16.33%.

Going from COC1CC(C)C(OC)c2cc(O)cc(c2O)NC(=O)/C(C)=C\C=C/C(C)C(OC(N)=O)/C(C)=C\C(C)C1OC (centres unmarked) [NSC330500] to COc1cc(/C=C(\OC(C)=O)c2ccc3c(c2)OCO3)cc(OC)c1OC [NSC647363], the “MEAN CpLDH INHIBITION (%)” value rises from -19.04% to -3.74%.

Compared with CCC1=C(C[C@H]2NCCc3cc(OC)c(OC)cc32)C[C@H]2c3cc(OC)c(OC)cc3CCN2C1 [NSC129414], COc1cc(CC(=O)c2cc3c(cc2-c2ccccc2)OCO3)cc(OC)c1OC [NSC648419] is higher in “MEAN CpLDH INHIBITION (%)” value: -16.26% for the first, -12.60% for the second.

First: [O-][n+]1ccccc1[S-].[O-][n+]1ccccc1[S-].[Zn+2] [NSC68093]
Second: [N-]=[N+]=NC1=NNC2(C(=O)N1)c1ccccc1-c1ccccc12 [NSC666168]
The “MEAN CpLDH INHIBITION (%)” value of the first is higher: -17.03% for the first, -17.65% for the second.

First: COc1ccccc1/C=C1\Sc2scc(-c3cccc([N+](=O)[O-])c3)[n+]2C1=O.[Cl-] [NSC657446]
Second: CC(=O)c1sc2[n+](c1C)C(=O)/C(=C\c1ccccc1Cl)S2 [NSC658285]
The “MEAN CpLDH INHIBITION (%)” value of the first is higher: -8.01% for the first, -36.39% for the second.

First: CCCn1c(=O)c2ccccc2[n+]2c(-c3ccc([N+](=O)[O-])cc3)csc12.[Br-] [NSC657603]
Second: O=C1C(c2cnc3ccccc3n2)=C(O)c2ccccc21 [NSC634224]
The “MEAN CpLDH INHIBITION (%)” value of the first is lower: -45.82% for the first, -37.07% for the second.

First: CCC(=O)OC1CCn2c1nc1c2C(=O)C(C)=C(N2CC2)C1=O (centres unmarked) [NSC651079]
Second: C=C(C)[C@@H]1CCc2c(O)c(O)c(=O)cc(C)c2C1 [NSC310618]
The “MEAN CpLDH INHIBITION (%)” value of the first is higher: -28.42% for the first, -54.97% for the second.

Going from Nc1nc2n[nH]nc2c(=O)[nH]1 [NSC749] to Nc1nc(N)c(-c2cccc(C(F)(F)F)c2)c(Cc2cccc(C(F)(F)F)c2)n1 [NSC71669], the “MEAN CpLDH INHIBITION (%)” value falls from -18.77% to -53.065%.

Compared with COc1cc(/C=C2\S/C(=N/Nc3nc(-c4ccc(Br)cc4)cs3)NC2=O)cc(OC)c1OC [NSC657457], Cc1nc2c(o1)C(=O)c1ccccc1C2=Nc1ccccc1 [NSC650573] is higher in “MEAN CpLDH INHIBITION (%)” value: -150.87% for the first, -21.28% for the second.

Going from CC(C)C1=C(O)C2=C(C(=O)C1=O)[C@@]1(C)CCCC(C)(C)[C@@H]1C[C@H]2O [NSC294577] to C[C@@H]1CC[C@H]2C(C)(C)[C@H]3C[C@@]12CC[C@@]3(C)O [NSC403883], the “MEAN CpLDH INHIBITION (%)” value falls from -16.31% to -51.63%.

Going from CCP(CC)CC.[Au+].[Cl-] [NSC313981] to Cc1ccc(N=N/C(=N\NC(=O)c2ccc(C)cc2)c2ccc(N(CCC#N)CCC#N)cc2C)cc1 [NSC703550], the “MEAN CpLDH INHIBITION (%)” value falls from -27.27% to -165.27%.

Compared with Fc1cccc(Cl)c1C1SCc2nc3ccccc3n21 (centres unmarked) [NSC625483], O=C1c2cccc(O)c2C(=O)c2c(O)cccc21 [NSC7210] is lower in “MEAN CpLDH INHIBITION (%)” value: -18.24% for the first, -48.97% for the second.

Going from N#CC(=C1C=CC(=NO)C=C1)c1ccc(Cl)cc1 [NSC405158] to NC(N)=N/N=C(\c1ccc(Cl)cc1)C1CC1 [NSC74420], the “MEAN CpLDH INHIBITION (%)” value rises from -30.77% to -7.03%.

Going from Cn1c(=O)c2nc3sc4c(n3c2n(C)c1=O)C(=O)c1ccccc1C4=O [NSC634568] to CCCC/C=C/C=C/C=C/CCCCCCCC(=O)OCC(COC(=O)CCCCCCC/C=C/C1C=CC(CCCC)C(C(=O)O)C1C(=O)O)OC(=O)CCCCCCC/C=C/C=C/C=C/CCCC.OCCNCO (centres unmarked) [NSC643834], the “MEAN CpLDH INHIBITION (%)” value rises from -8.97% to -1.59%.
